Measurements taken from patent US8569336B2, “Compounds for the treatment of inflammatory disorders” (priority 2008, dated 2013).
pIC50, pKi: −log10 of the molar value. Read-outs that look alike come from different tables or passages of the source.

Columns and labels:
[1] = molecular target: T1, purified catalytic domain of recombinant human TACE (rhTACEc) (Homo sapiens, UniProt P78536, N452Q/S266A); test: TACE kinetic assay: cleavage of internally quenched peptide substrate TNF-FRET 2 (Ki); assay type: biochemical; settings: TNF-FRET 2 substrate, read-out: Ki
T1 construct: 6xHis (C); made in house; host or cells: baculovirus/Hi5 insect cells
T1 sequence (P78536 215-477 S266A/N452Q): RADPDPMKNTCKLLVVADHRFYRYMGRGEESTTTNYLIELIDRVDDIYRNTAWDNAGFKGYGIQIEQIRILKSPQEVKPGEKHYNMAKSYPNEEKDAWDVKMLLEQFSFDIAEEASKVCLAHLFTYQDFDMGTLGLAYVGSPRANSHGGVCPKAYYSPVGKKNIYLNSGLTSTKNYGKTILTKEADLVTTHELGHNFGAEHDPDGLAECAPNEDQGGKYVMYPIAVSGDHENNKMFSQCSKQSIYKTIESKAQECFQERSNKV

[2] = system: TNF-α production from human whole blood; test: Inhibition of TNF-α production from human whole blood (hWBA), LPS stimulated, ELISA; assay type: cell-based; settings: Homo sapiens, TNF-α by ELISA, read-out: hWBA (IC50)
[3] = LPS-stimulated human whole blood
[4] = 3.5 h, human whole blood diluted 1:1, LPS stimulated, 3.5 h
[5] = human whole blood diluted 1:1, LPS stimulated

SMILES	pKi [1]	pIC50 [2, 3]	pIC50 [2, 4]	pIC50 [2, 5]
COc1ccc2c(c1F)C(=O)N(C[C@@]1(c3cc4nc(N5CCCN(C)CC5)ccc4o3)NC(=O)NC1=O)C2 [Compound 1713]	9.12	6.82	–	–
COC(=O)[C@H](CCCCNC(=O)c1cc2cc([C@]3(CN4Cc5ccc(OC)cc5C4=O)NC(=O)NC3=O)oc2cc1F)NC(=O)CCCC[C@@H]1SCC2NC(=O)NC21 (some centres unmarked) [Compound 1282]	9.32	–	6.39	–
COc1ccc2c(c1F)C(=O)N(C[C@@]1(c3cc4nc(N5CCCC(C(N)=O)C5)ccc4o3)NC(=O)NC1=O)C2 (some centres unmarked) [Compound 1517]	9.30	6.59	–	–
COc1ccc2c(c1)C(=O)N(C[C@@]1(c3cc4nc(-c5cnc(N)nc5)ccc4o3)NC(=O)NC1=O)C2 [Compound 1519]	9.40	6.85	–	–
CNc1cc2oc([C@]3(CN4Cc5ccc(OC)cc5C4=O)NC(=O)NC3=O)cc2cn1 [Compound 2291]	9.24	–	–	5.47
COc1ccc2c(c1)C(=O)N(C[C@@]1(c3cc4nc(N(CCN(C)C)c5cn[nH]c5)ccc4o3)NC(=O)NC1=O)C2 [Compound 1704]	9.07	6.56	–	–
COc1ccc2c(c1)C(=O)N(C[C@@]1(c3cc4cc(C(=O)NCCN(C)CCN)c(F)cc4o3)NC(=O)NC1=O)C2 [Compound 1279]	9.00	–	6.30	–
COc1ccc2c(c1)C(=O)N(C[C@@]1(c3cc4c(N5CCNC(=O)C5)nccc4o3)NC(=O)NC1=O)C2 [Compound 2280]	8.96	–	–	6.47
O=C1NC(=O)[C@](CN2Cc3ccc(O)c(I)c3C2=O)(c2cc3ncccc3o2)N1 [Compound 1736]	7.27	< 5.00	–	–
COc1ccc2c(c1F)C(=O)N(C[C@@]1(c3cc4nc(-c5cccnc5)c(F)cc4o3)NC(=O)NC1=O)C2 [Compound 1315]	10.05	5.95	–	–
COc1ccc2c(c1)C(=O)N(C[C@@]1(c3cc4cc(-c5cccc(O)c5)ncc4o3)NC(=O)NC1=O)C2 [Compound 2242]	9.25	–	5.47	–
CCOC(=O)N1CCc2cc([C@]3(CN4Cc5ccc(OC)cc5C4=O)NC(=O)NC3=O)oc2C1 [Compound 317]	8.67	6.15	–	–
COc1ccc2c(c1)C(=O)N(C[C@@]1(c3cc4ncc(CNCc5ccccc5)cc4o3)NC(=O)NC1=O)C2 [Compound 1912]	8.65	5.49	–	–
COc1ccc2c(c1F)C(=O)N(C[C@@]1(c3cc4nc(Nc5cccnc5)ccc4o3)NC(=O)NC1=O)C2 [Compound 1728]	9.33	6.55	–	–
CCN1CCN(c2ccc3oc([C@]4(CN5Cc6ccc(OC)c(F)c6C5=O)NC(=O)NC4=O)cc3n2)C[C@@H]1C [Compound 1294]	8.96	–	6.56	–
COc1ccc2c(c1)C(=O)N(C[C@@]1(c3cc4cc(C(=O)NCCCC[C@H](NC(=O)CCCC[C@@H]5SCC6NC(=O)NC65)C(=O)O)c(F)cc4o3)NC(=O)NC1=O)C2 (some centres unmarked) [Compound 1283]	9.41	–	5.48	–
CNC1CCN(c2ccc3oc([C@]4(CN5Cc6ccc(OC)cc6C5=O)NC(=O)NC4=O)cc3n2)CC1 [Compound 2139]	8.84	–	6.41	–
CNC(=O)c1cnc(C)c2cc([C@]3(CN4Cc5ccc(OC)cc5C4=O)NC(=O)NC3=O)oc12 [Compound 2447]	9.27	–	–	6.26
COc1ccc2c(c1)C(=O)N(C[C@@]1(c3cc4cnc(OC)cc4o3)NC(=O)NC1=O)C2 [Compound 2308]	9.48	–	–	5.68
COc1ccc2c(c1)C(=O)N(C[C@@]1(c3cc4cc(C)nc(C)c4o3)NC(=O)NC1=O)C2 [Compound 204]	9.18	5.39	–	–
CCNc1nnc(-c2ccc3oc([C@]4(CN5Cc6ccc(OC)c(F)c6C5=O)NC(=O)NC4=O)cc3n2)o1 [Compound 1916]	9.09	6.51	–	–
COc1ccc2c(c1)C(=O)N(C[C@@]1(c3cc4cc(C#N)ccc4o3)NC(=O)NC1=O)C2 [Compound 2476]	9.43	–	–	6.07
